Assays:
Assay type in all cases: in vivo
[1] = test system: Echinochloa crusgalli; assay: Post-emergence test experiment, Echinochloa crusgalli; conditions: 1000 g a.i./ha, 3 weeks in greenhouse, fresh weight inhibition
Protocol: (§1) The above described growth inhibition rate is fresh weight inhibition rate.
(§2) Post-emergence test experiment: Monocotyledonous and dicotyledonous weed seeds and main crop seeds (i. e. wheat, corn, rice, soybean, cotton, oilseed, millet and sorghum.) were put into a plastic pot loaded with soil. Then covered with 0.5-2 cm soil, the seeds were allowed to grow in good greenhouse environment. The test plants were treated at 2-3 leaf stage 2 weeks after sowing. The test compounds of the invention were dissolved with acetone respectively, then added with tween-80, and using 1.5 liters per hectare of an emulsible concentrate of methyl oleate as a synergist, and diluted by certain amount of water to certain concentration. The solution was sprayed to the plants with a sprayer. Then the plants were cultured for 3 weeks in the greenhouse, and the experiment result of weed controlling effect was listed in tables 4-5.

[2] = test system: Digitaria sanguinalis; assay: Post-emergence test experiment, Digitaria sanguinalis; conditions: 1000 g a.i./ha, 3 weeks in greenhouse, fresh weight inhibition
Protocol: as §1, §2

[3] = test system: Monocotyledonous and dicotyledonous weed seeds and main crop seeds; assay: Post-emergence test experiment, other weeds and crops (Table 4, 1000 g a.i./ha); conditions: 3 weeks in greenhouse, fresh weight inhibition
Procedure, shortened: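 Weed and crop seeds (wheat, corn, rice, soybean, cotton, oilseed, millet, sorghum) sown in soil pots in a greenhouse and sprayed at 2-3 leaf stage, 2 weeks after sowing. Compound in acetone/tween-80 with methyl oleate concentrate (1.5 L/ha) as synergist. Effect recorded as fresh-weight growth inhibition rate.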

Row | SMILES | Activity level (growth inhibition rate), Echinochloa crusgalli [1] | Activity level (growth inhibition rate), Digitaria sanguinalis [2] | Activity level (growth inhibition rate), Abutilon theophrasti Medic. [3] | Activity level (growth inhibition rate), Galium aparine [3] | Activity level (growth inhibition rate), Monochoria Vaginalis [3]
1 | CCCCCCOC(=O)[C@@H](C)Oc1nc(F)c(Cl)c(N)c1Cl [Compound 2-101] | 5 (Level 5: the growth inhibition rate is greater than 85%) | 5 (Level 5: the growth inhibition rate is greater than 85%) | 5 (Level 5: the growth inhibition rate is greater than 85%) | 5 (Level 5: the growth inhibition rate is greater than 85%) | 5 (Level 5: the growth inhibition rate is greater than 85%)
2 | C[C@@H](Oc1nc(F)c(Cl)c(N)c1Cl)C(=O)OCc1cnn(C)c1 [Compound 2-354] | 5 (Level 5: the growth inhibition rate is greater than 85%) | 5 (Level 5: the growth inhibition rate is greater than 85%) | 5 (Level 5: the growth inhibition rate is greater than 85%) | 5 (Level 5: the growth inhibition rate is greater than 85%) | 5 (Level 5: the growth inhibition rate is greater than 85%)
3 | C[C@@H](Oc1nc(F)c(Cl)c(N)c1Cl)C(=O)SCc1ccc(C(F)(F)F)cc1 [Compound 2-332] | 5 (Level 5: the growth inhibition rate is greater than 85%) | 5 (Level 5: the growth inhibition rate is greater than 85%) | 5 (Level 5: the growth inhibition rate is greater than 85%) | 5 (Level 5: the growth inhibition rate is greater than 85%) | 5 (Level 5: the growth inhibition rate is greater than 85%)
4 | CC(Oc1nc(F)c(Cl)c(N)c1Cl)C(=O)OCC(=O)N(C)C (stereo not shown) [Compound 2-289] | 5 (Level 5: the growth inhibition rate is greater than 85%) | 5 (Level 5: the growth inhibition rate is greater than 85%) | 5 (Level 5: the growth inhibition rate is greater than 85%) | 5 (Level 5: the growth inhibition rate is greater than 85%) | 5 (Level 5: the growth inhibition rate is greater than 85%)
5 | CCC(CC)OC(=O)[C@@H](C)Oc1nc(F)c(Cl)c(N)c1Cl [Compound 2-97] | 5 (Level 5: the growth inhibition rate is greater than 85%) | 5 (Level 5: the growth inhibition rate is greater than 85%) | 5 (Level 5: the growth inhibition rate is greater than 85%) | 5 (Level 5: the growth inhibition rate is greater than 85%) | 5 (Level 5: the growth inhibition rate is greater than 85%)
6 | CC(Oc1nc(F)c(Cl)c(N)c1Cl)C(=O)SCc1ccccc1C(F)(F)F (stereo not shown) [Compound 2-328] | 5 (Level 5: the growth inhibition rate is greater than 85%) | 5 (Level 5: the growth inhibition rate is greater than 85%) | 5 (Level 5: the growth inhibition rate is greater than 85%) | 5 (Level 5: the growth inhibition rate is greater than 85%) | 5 (Level 5: the growth inhibition rate is greater than 85%)
7 | CC(Oc1nc(F)c(Cl)c(N)c1Cl)C(=O)OCCN (stereo not shown) [Compound 2-284] | 5 (Level 5: the growth inhibition rate is greater than 85%) | 5 (Level 5: the growth inhibition rate is greater than 85%) | 5 (Level 5: the growth inhibition rate is greater than 85%) | 5 (Level 5: the growth inhibition rate is greater than 85%) | 5 (Level 5: the growth inhibition rate is greater than 85%)
8 | C[C@@H](Oc1nc(F)c(Cl)c(N)c1Cl)C(=O)OCc1ccoc1 [Compound 2-349] | 5 (Level 5: the growth inhibition rate is greater than 85%) | 5 (Level 5: the growth inhibition rate is greater than 85%) | 5 (Level 5: the growth inhibition rate is greater than 85%) | 5 (Level 5: the growth inhibition rate is greater than 85%) | 5 (Level 5: the growth inhibition rate is greater than 85%)
9 | Cc1ccc(COC(=O)C(C)Oc2nc(F)c(Cl)c(N)c2Cl)cc1 (stereo not shown) [Compound 2-306] | 5 (Level 5: the growth inhibition rate is greater than 85%) | 5 (Level 5: the growth inhibition rate is greater than 85%) | 5 (Level 5: the growth inhibition rate is greater than 85%) | 5 (Level 5: the growth inhibition rate is greater than 85%) | 5 (Level 5: the growth inhibition rate is greater than 85%)
10 | Cc1cc(OC(=O)[C@@H](C)Oc2nc(F)c(Cl)c(N)c2Cl)n(C)n1 [Compound 2-352] | 5 (Level 5: the growth inhibition rate is greater than 85%) | 5 (Level 5: the growth inhibition rate is greater than 85%) | 5 (Level 5: the growth inhibition rate is greater than 85%) | 5 (Level 5: the growth inhibition rate is greater than 85%) | 5 (Level 5: the growth inhibition rate is greater than 85%)
11 | CC(C)CCOC(=O)[C@@H](C)Oc1nc(F)c(Cl)c(N)c1Cl [Compound 2-89] | 5 (Level 5: the growth inhibition rate is greater than 85%) | 5 (Level 5: the growth inhibition rate is greater than 85%) | 5 (Level 5: the growth inhibition rate is greater than 85%) | 5 (Level 5: the growth inhibition rate is greater than 85%) | 5 (Level 5: the growth inhibition rate is greater than 85%)
12 | CC(Oc1nc(F)c(Cl)c(N)c1Cl)C(=O)SCc1ccccc1F (stereo not shown) [Compound 2-309] | 5 (Level 5: the growth inhibition rate is greater than 85%) | 5 (Level 5: the growth inhibition rate is greater than 85%) | 5 (Level 5: the growth inhibition rate is greater than 85%) | 5 (Level 5: the growth inhibition rate is greater than 85%) | 5 (Level 5: the growth inhibition rate is greater than 85%)
13 | CCC(C)OC(=O)[C@@H](C)Oc1nc(F)c(Cl)c(N)c1Cl (stereo partly shown) [Compound 2-81] | 5 (Level 5: the growth inhibition rate is greater than 85%) | 5 (Level 5: the growth inhibition rate is greater than 85%) | 5 (Level 5: the growth inhibition rate is greater than 85%) | 5 (Level 5: the growth inhibition rate is greater than 85%) | 5 (Level 5: the growth inhibition rate is greater than 85%)
14 | C[C@@H](Oc1nc(F)c(Cl)c(N)c1Cl)C(=O)SCc1cccc(C#N)c1 [Compound 2-336] | 5 (Level 5: the growth inhibition rate is greater than 85%) | 5 (Level 5: the growth inhibition rate is greater than 85%) | 5 (Level 5: the growth inhibition rate is greater than 85%) | 5 (Level 5: the growth inhibition rate is greater than 85%) | 5 (Level 5: the growth inhibition rate is greater than 85%)

— patent US12304890B2, “R-type pyridyloxycarboxylic acid, salt and ester derivative thereof, and preparation method therefor, and herbicidal composition and application thereof” (Qingdao Kingagroot Chemical Compound Co., Ltd., priority 2018, dated 2025)
